Measured values published in patent US9718819B2 (Merck Sharp & Dohme Corp., priority 2012, dated 2017).

target: HIV-1 RT wild-type enzyme (Human immunodeficiency virus type 1 group M subtype B (isolate HXB2) (HIV-1), UniProt P04585); test: HIV-1 reverse transcriptase inhibitory activity (RT polymerase assay); format: biochemical; details: HIV-1 RT wild-type enzyme 83 pM; RNA-dependent DNA polymerase activity; read-out: IC50
How it was run: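 Biotinylated DNA primer annealed to HCV-derived RNA template (16.6 nM final hybrid), with 2 μM dATP/dGTP/dCTP and 66.6 nM Ru-dUTP, after 30 min compound–enzyme preincubation at room temperature; polymerization 90 min at 37 °C, EDTA quench. Product captured on avidin plates, electrochemiluminescence read; IC50 by four-parameter logistic fit versus DMSO and 1 μM efavirenz controls.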

Row | SMILES | IC50 [nM]
1 | N#Cc1cc(Cl)cc(Oc2c(C(F)(F)F)ncn(Cc3cc(Cl)c(=O)[nH]n3)c2=O)c1 [Example 91, 3-chloro-5-((1-((5-chloro-6-oxo-1,6-dihydropyridazin-3-yl)methyl)-6-oxo-4-(trifluoromethyl)-1,6-dihydropyrimidin-5-yl)oxy)benzonitrile] | 6
2 | CN(C)c1cc(Cn2cnc(C(F)(F)F)c(Oc3cc(Cl)cc(C#N)c3)c2=O)n[nH]c1=O [Example 92, 3-chloro-5-((1-((5-(dimethylamino)-6-oxo-1,6-dihydropyridazin-3-yl)methyl)-6-oxo-4-(trifluoromethyl)-1,6-dihydropyrimidin-5-yl)oxy)benzonitrile] | 6
3 | N#Cc1cc(Cl)cc(Oc2c(C(F)(F)F)ncn(Cc3cc(-n4cccn4)c(=O)[nH]n3)c2=O)c1 [Example 93, 3-chloro-5-((6-oxo-1-((6-oxo-5-(1H-pyrazol-1-yl)-1,6-dihydropyridazin-3-yl)methyl)-4-(trifluoromethyl)-1,6-dihydropyrimidin-5-yl)oxy)benzonitrile] | 11
4 | N#Cc1cc(Cl)cc(Oc2c(C(F)(F)F)ncn(Cc3cc(-n4ccnn4)c(=O)[nH]n3)c2=O)c1 [Example 94, 3-chloro-5-((6-oxo-1-((6-oxo-5-(1H-1,2,3-triazol-1-yl)-1,6-dihydropyridazin-3-yl)methyl)-4-(trifluoromethyl)-1,6-dihydropyrimidin-5-yl)oxy)benzonitrile] | 48
5 | N#Cc1cc(Cl)cc(Oc2c(C(F)(F)F)ncn(Cc3cc(C#N)c(=O)[nH]n3)c2=O)c1 [Example 95, 6-((5-(3-chloro-5-cyanophenoxy)-6-oxo-4-(trifluoromethyl)pyrimidin-1(6H)-yl)methyl)-3-oxo-2,3-dihydropyridazine-4-carbonitrile] | 8
6 | CS(=O)(=O)c1cc(Cn2cnc(C(F)(F)F)c(Oc3cc(Cl)cc(C#N)c3)c2=O)n[nH]c1=O [Example 96, 3-chloro-5-((1-((5-(methylsulfonyl)-6-oxo-1,6-dihydropyridazin-3-yl)methyl)-6-oxo-4-(trifluoromethyl)-1,6-dihydropyrimidin-5-yl)oxy)benzonitrile] | 336
7 | CCS(=O)(=O)c1cc(Cn2cnc(C(F)(F)F)c(Oc3cc(Cl)cc(C#N)c3)c2=O)n[nH]c1=O [Example 97, 3-chloro-5-((1-((5-(ethylsulfonyl)-6-oxo-1,6-dihydropyridazin-3-yl)methyl)-6-oxo-4-(trifluoromethyl)-1,6-dihydropyrimidin-5-yl)oxy)benzonitrile] | 247
8 | N#Cc1cc(Cl)cc(Oc2c(C(F)(F)F)ncn(Cc3cc(-c4ccc(F)cn4)c(=O)[nH]n3)c2=O)c1 [Example 98, 3-chloro-5-((1-((5-(5-fluoropyridin-2-yl)-6-oxo-1,6-dihydropyridazin-3-yl)methyl)-6-oxo-4-(trifluoromethyl)-1,6-dihydropyrimidin-5-yl)oxy)benzonitrile] | 9
9 | N#Cc1cc(Cl)cc(Oc2c(C(F)(F)F)ncn(Cc3cc(-c4ccc(Cl)cn4)c(=O)[nH]n3)c2=O)c1 [Example 99, 3-chloro-5-((1-((5-(5-chloropyridin-2-yl)-6-oxo-1,6-dihydropyridazin-3-yl)methyl)-6-oxo-4-(trifluoromethyl)-1,6-dihydropyrimidin-5-yl)oxy)benzonitrile] | 7
10 | COC(=O)c1cc(Cn2cnc(C(F)(F)F)c(Oc3cc(Cl)cc(C#N)c3)c2=O)n[nH]c1=O [Example 100, methyl 6-((5-(3-chloro-5-cyanophenoxy)-6-oxo-4-(trifluoromethyl)pyrimidin-1(6H)-yl)methyl)-3-oxo-2,3-dihydropyridazine-4-carboxylate] | 23
11 | N#Cc1cc(Cl)cc(Oc2c(C(F)(F)F)ncn(Cc3cc(C(N)=O)c(=O)[nH]n3)c2=O)c1 [Example 101, 6-((5-(3-chloro-5-cyanophenoxy)-6-oxo-4-(trifluoromethyl)pyrimidin-1(6H)-yl)methyl)-3-oxo-2,3-dihydropyridazine-4-carboxamide] | 153
12 | N#Cc1cc(Cl)cc(Oc2c(C(F)(F)F)ncn(Cc3cc(C(F)F)c(=O)[nH]n3)c2=O)c1 [Example 102, 3-chloro-5-((1-((5-(difluoromethyl)-6-oxo-1,6-dihydropyridazin-3-yl)methyl)-6-oxo-4-(trifluoromethyl)-1,6-dihydropyrimidin-5-yl)oxy)benzonitrile] | 20
13 | N#Cc1cc(Cl)cc(Oc2c(C(F)(F)F)ncn(Cc3cc(C(O)C(F)(F)F)c(=O)[nH]n3)c2=O)c1 (stereo not drawn) [Example 103, 3-chloro-5-((6-oxo-1-((6-oxo-5-(2,2,2-trifluoro-1-hydroxyethyl)-1,6-dihydropyridazin-3-yl)methyl)-4-(trifluoromethyl)-1,6-dihydropyrimidin-5-yl)oxy)benzonitrile] | 74
14 | CC(=O)c1cc(Cn2cnc(C(F)(F)F)c(Oc3cc(Cl)cc(C#N)c3)c2=O)n[nH]c1=O [Example 105, 3-((1-((5-acetyl-6-oxo-1,6-dihydropyridazin-3-yl)methyl)-6-oxo-4-(trifluoromethyl)-1,6-dihydropyrimidin-5-yl)oxy)-5-chlorobenzonitrile] | 19
15 | COc1cc(Cn2cnc(C(F)(F)F)c(Oc3cc(Cl)cc(C#N)c3)c2=O)n[nH]c1=O [Example 106, 3-chloro-5-((1-((5-methoxy-6-oxo-1,6-dihydropyridazin-3-yl)methyl)-6-oxo-4-(trifluoromethyl)-1,6-dihydropyrimidin-5-yl)oxy)benzonitrile] | 12
16 | N#Cc1cc(Cl)cc(Oc2c(C(F)(F)F)ncn(Cc3cc(O)c(=O)[nH]n3)c2=O)c1 [Example 107, 3-chloro-5-((1-((5-hydroxy-6-oxo-1,6-dihydropyridazin-3-yl)methyl)-6-oxo-4-(trifluoromethyl)-1,6-dihydropyrimidin-5-yl)oxy)benzonitrile] | 223
17 | N#Cc1cc(Cl)cc(Oc2c(C(F)(F)F)ncn(Cc3cc(Oc4ccc(F)cc4)c(=O)[nH]n3)c2=O)c1 [Example 108, 3-chloro-5-((1-((5-(4-fluorophenoxy)-6-oxo-1,6-dihydropyridazin-3-yl)methyl)-6-oxo-4-(trifluoromethyl)-1,6-dihydropyrimidin-5-yl)oxy)benzonitrile] | 316
18 | N#Cc1cc(Cl)cc(Oc2c(C(F)(F)F)ncn(Cc3cc(OC(F)F)c(=O)[nH]n3)c2=O)c1 [Example 109, 3-chloro-5-((1-((5-(difluoromethoxy)-6-oxo-1,6-dihydropyridazin-3-yl)methyl)-6-oxo-4-(trifluoromethyl)-1,6-dihydropyrimidin-5-yl)oxy)benzonitrile] | 7
19 | Cn1cc(-c2cc(Cn3cnc(C(F)(F)F)c(Oc4cc(Cl)cc(C#N)c4)c3=O)c(=O)[nH]n2)cn1 [Example 111, 3-chloro-5-((1-((6-(1-methyl-1H-pyrazol-4-yl)-3-oxo-2,3-dihydropyridazin-4-yl)methyl)-6-oxo-4-(trifluoromethyl)-1,6-dihydropyrimidin-5-yl)oxy)benzonitrile] | 10
20 | N#Cc1cc(Cl)cc(Oc2c(C(F)(F)F)ncn(Cc3cc(-c4ccc(F)cc4)n[nH]c3=O)c2=O)c1 [Example 112, 3-chloro-5-((1-((6-(4-fluorophenyl)-3-oxo-2,3-dihydropyridazin-4-yl)methyl)-6-oxo-4-(trifluoromethyl)-1,6-dihydropyrimidin-5-yl)oxy)benzonitrile] | 5
21 | N#Cc1cc(Cl)cc(Oc2c(C(F)(F)F)ncn(Cc3cc(-c4cccc(F)c4)n[nH]c3=O)c2=O)c1 [Example 113, 3-chloro-5-((1-((6-(3-fluorophenyl)-3-oxo-2,3-dihydropyridazin-4-yl)methyl)-6-oxo-4-(trifluoromethyl)-1,6-dihydropyrimidin-5-yl)oxy)benzonitrile] | 6
22 | Cn1nccc1-c1cc(Cn2cnc(C(F)(F)F)c(Oc3cc(Cl)cc(C#N)c3)c2=O)c(=O)[nH]n1 [Example 114, 3-chloro-5-((1-((6-(1-methyl-1H-pyrazol-5-yl)-3-oxo-2,3-dihydropyridazin-4-yl)methyl)-6-oxo-4-(trifluoromethyl)-1,6-dihydropyrimidin-5-yl)oxy)benzonitrile] | 7
23 | N#Cc1cc(Cl)cc(Oc2c(C(F)(F)F)ncn(Cc3cc(-c4ccc(OC(F)F)cc4)n[nH]c3=O)c2=O)c1 [Example 115, 3-chloro-5-((1-((6-(4-(difluoromethoxy)phenyl)-3-oxo-2,3-dihydropyridazin-4-yl)methyl)-6-oxo-4-(trifluoromethyl)-1,6-dihydropyrimidin-5-yl)oxy)benzonitrile] | 7
24 | N#Cc1cc(Cl)cc(Oc2c(C(F)(F)F)ncn(Cc3cc(-c4ccc(OC(F)(F)F)cc4)n[nH]c3=O)c2=O)c1 [Example 116, 3-chloro-5-((6-oxo-1-((3-oxo-6-(4-(trifluoromethoxy)phenyl)-2,3-dihydropyridazin-4-yl)methyl)-4-(trifluoromethyl)-1,6-dihydropyrimidin-5-yl)oxy)benzonitrile] | 21
25 | N#Cc1cc(Cl)cc(Oc2c(C(F)(F)F)ncn(Cc3cc(-c4ccc(C(F)(F)F)cc4)n[nH]c3=O)c2=O)c1 [Example 119, 3-chloro-5-((6-oxo-1-((3-oxo-6-(4-(trifluoromethyl)phenyl)-2,3-dihydropyridazin-4-yl)methyl)-4-(trifluoromethyl)-1,6-dihydropyrimidin-5-yl)oxy)benzonitrile] | 12
26 | N#Cc1cc(Cl)cc(Oc2c(C(F)(F)F)ncn(Cc3cc(-c4cccc(F)c4F)n[nH]c3=O)c2=O)c1 [Example 120, 3-chloro-5-((1-((6-(2,3-difluorophenyl)-3-oxo-2,3-dihydropyridazin-4-yl)methyl)-6-oxo-4-(trifluoromethyl)-1,6-dihydropyrimidin-5-yl)oxy)benzonitrile] | 3
27 | N#Cc1cc(Cl)cc(Oc2c(C(F)(F)F)ncn(Cc3cc(-c4ccc(F)c(F)c4)n[nH]c3=O)c2=O)c1 [Example 121, 3-chloro-5-((1-((6-(3,4-difluorophenyl)-3-oxo-2,3-dihydropyridazin-4-yl)methyl)-6-oxo-4-(trifluoromethyl)-1,6-dihydropyrimidin-5-yl)oxy)benzonitrile] | 5
